From US20250064877A1, “COMPOSITION FOR INCREASING MUSCLE STRENGTH CONTAINING COMPLEX EXTRACT OF ANGELICA KEISKEI AND LEAVES OF MORUS ALBA L” (HAMSOA PHARMACEUTICAL CO., LTD., priority 2022, published 2025)

System: MuRF1
Assay: Expression of MuRF1 in dexamethasone-induced muscle atrophy rats
Assay type: in vivo, SD rats
Details: versus increase induced by dexamethasone; MIX 100 mg/kg, PC 320 mg/kg oral; FIG. 7
Text: In the process of treating muscle atrophy, the effects of the composite (extracts) of leaves of mulberry and Angelica keiskei on the expression of MyoD (a factor involved in muscle production) and on the expression of MuRF1 (a factor related to muscle atrophy) were confirmed.

`CC(C)(O)CC(=O)O` [PC, 3-hydroxy-3-methylbutyric acid] was tested, and the “expression of MuRF1” value was “tended to decrease”.
